Several values for one entry are separate records, joined by “and”; a condition that tells them apart may be missing. Equal entries are not always repeated. Blank lines part the entries; values can stand above or below the compound they belong to.
Experiments:
GR (h) = target: T1, GR (h) (Homo sapiens, UniProt P04150); format: binding
T1 construct: IM-9 cells; host or cells: IM-9 cells (cytosol)

M3 (h) = M3 (h) (Homo sapiens, UniProt P20309)
M5 (h) = target: T2, M5 (h) (Homo sapiens, UniProt P08912); format: binding
T2 construct: host or cells: CHO cells
T2 sequence (P08912 1-532): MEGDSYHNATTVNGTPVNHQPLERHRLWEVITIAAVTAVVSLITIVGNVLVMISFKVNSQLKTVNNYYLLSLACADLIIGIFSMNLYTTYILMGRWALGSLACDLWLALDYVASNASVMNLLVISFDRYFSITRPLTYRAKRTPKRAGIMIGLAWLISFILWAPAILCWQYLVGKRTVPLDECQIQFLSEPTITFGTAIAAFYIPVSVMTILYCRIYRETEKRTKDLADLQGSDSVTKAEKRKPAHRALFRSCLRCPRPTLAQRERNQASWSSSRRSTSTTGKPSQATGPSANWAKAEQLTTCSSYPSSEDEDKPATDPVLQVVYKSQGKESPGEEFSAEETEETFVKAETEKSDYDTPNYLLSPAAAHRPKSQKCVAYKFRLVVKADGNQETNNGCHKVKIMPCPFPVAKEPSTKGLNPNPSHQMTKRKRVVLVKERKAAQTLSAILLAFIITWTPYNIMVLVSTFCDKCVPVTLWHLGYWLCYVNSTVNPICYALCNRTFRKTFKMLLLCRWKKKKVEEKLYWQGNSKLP

M4 (h) = target: T3, M4 (h) (Homo sapiens, UniProt P08173)
T3 sequence (P08173 1-479): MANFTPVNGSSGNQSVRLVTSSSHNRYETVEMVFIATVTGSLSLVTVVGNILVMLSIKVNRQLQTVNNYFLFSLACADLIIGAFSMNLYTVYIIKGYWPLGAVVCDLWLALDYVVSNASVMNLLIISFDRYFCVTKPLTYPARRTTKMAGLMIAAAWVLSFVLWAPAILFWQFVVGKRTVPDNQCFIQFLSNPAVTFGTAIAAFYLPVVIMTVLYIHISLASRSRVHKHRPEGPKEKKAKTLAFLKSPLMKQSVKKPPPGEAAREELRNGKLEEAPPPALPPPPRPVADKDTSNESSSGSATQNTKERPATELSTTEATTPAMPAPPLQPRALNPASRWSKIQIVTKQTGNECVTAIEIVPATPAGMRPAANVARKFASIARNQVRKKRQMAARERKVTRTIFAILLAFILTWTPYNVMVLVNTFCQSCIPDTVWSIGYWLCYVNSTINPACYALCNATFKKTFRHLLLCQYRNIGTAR

NMRI mice = format: in vivo, mouse; settings: 8 mg/kg oral
Protocol: NMRI mice were habituated to their room for at least 2 to 3 weeks after the delivery and kept under standard conditions in groups of 4–5 animals per cage. Food and water were available ad libitum.
The tail suspension test was performed using with a BIOSEB system. In preparation for the experiment, a piece of tape (approx. 15 cm long) was wrapped around the end of the mouse tail approximately 2 mm before the tip. The tape was then attached to a holding device within the measuring unit at a height of approximately 30cm.
Movements of the animals were monitored and automatically evaluated by corresponding software. The duration of immobility during 6 min observation period was recorded. At the end of the experiment plasma samples were taken and the animals were sacrificed via isofluorane inhalation and subsequent decapitation.

5-HT6 (h) = 5-HT6 (h) (Homo sapiens, UniProt P50406)
Sequence of 5-HT6 (h) (P50406 whole entry): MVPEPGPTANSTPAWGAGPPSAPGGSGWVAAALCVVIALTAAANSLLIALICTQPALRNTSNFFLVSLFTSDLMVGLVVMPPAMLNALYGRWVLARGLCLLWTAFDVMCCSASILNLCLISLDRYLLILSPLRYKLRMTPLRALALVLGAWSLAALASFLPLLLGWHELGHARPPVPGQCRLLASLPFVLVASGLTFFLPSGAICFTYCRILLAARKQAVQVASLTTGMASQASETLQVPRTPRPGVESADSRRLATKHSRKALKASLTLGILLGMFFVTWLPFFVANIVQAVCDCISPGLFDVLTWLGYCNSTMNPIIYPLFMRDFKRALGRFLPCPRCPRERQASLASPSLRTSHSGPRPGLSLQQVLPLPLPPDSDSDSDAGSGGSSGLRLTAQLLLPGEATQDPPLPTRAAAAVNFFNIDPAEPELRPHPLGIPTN

5-HT4e (h) = 5-HT4e (h) (Homo sapiens, UniProt Q13639)
Sequence of 5-HT4e (h) (Q13639 1-378 isoform Q13639-5): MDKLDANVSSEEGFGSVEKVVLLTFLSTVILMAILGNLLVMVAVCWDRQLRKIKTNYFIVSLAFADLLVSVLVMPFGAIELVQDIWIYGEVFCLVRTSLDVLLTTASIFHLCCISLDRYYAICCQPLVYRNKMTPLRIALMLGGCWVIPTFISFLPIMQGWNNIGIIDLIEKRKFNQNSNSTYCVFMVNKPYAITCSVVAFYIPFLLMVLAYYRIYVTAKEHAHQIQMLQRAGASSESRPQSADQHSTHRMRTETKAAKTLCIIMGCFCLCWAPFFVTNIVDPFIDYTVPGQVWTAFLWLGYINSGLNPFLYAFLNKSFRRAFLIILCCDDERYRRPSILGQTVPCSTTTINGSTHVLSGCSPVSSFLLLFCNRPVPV

5-HT1B = 5-HT1B (Rattus norvegicus, UniProt P28564)
Sequence of 5-HT1B (P28564 whole entry): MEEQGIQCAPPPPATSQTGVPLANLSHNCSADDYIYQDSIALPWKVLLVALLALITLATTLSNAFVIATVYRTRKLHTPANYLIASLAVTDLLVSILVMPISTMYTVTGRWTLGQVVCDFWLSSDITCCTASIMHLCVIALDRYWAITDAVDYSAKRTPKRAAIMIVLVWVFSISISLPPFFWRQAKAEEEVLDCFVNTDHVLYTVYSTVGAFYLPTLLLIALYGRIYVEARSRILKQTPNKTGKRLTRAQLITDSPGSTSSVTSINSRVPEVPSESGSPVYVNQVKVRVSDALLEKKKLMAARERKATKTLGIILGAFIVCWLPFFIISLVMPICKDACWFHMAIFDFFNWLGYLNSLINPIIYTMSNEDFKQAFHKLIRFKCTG

T1 sequence (P04150 whole entry): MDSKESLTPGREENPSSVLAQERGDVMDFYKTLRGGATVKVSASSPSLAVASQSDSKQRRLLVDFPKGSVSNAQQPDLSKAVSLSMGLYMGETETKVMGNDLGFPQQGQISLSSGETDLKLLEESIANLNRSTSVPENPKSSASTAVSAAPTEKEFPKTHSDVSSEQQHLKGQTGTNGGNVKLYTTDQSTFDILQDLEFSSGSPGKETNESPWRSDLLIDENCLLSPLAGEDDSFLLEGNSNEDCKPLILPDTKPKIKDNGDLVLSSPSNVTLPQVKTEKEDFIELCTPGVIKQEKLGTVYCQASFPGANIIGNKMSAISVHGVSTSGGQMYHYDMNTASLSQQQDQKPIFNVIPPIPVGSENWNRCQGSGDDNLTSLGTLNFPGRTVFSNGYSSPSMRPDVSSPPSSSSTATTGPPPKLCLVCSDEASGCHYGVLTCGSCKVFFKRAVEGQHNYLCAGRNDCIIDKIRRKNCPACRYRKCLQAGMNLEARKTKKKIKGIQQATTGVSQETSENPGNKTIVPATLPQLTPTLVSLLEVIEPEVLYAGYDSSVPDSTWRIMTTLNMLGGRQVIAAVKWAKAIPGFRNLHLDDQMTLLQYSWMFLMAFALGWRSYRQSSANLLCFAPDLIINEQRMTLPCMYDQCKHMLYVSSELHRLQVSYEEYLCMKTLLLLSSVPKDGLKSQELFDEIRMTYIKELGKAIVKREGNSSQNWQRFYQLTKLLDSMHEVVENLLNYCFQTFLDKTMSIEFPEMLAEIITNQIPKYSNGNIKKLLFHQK
Sequence of M3 (h) (P20309 whole entry): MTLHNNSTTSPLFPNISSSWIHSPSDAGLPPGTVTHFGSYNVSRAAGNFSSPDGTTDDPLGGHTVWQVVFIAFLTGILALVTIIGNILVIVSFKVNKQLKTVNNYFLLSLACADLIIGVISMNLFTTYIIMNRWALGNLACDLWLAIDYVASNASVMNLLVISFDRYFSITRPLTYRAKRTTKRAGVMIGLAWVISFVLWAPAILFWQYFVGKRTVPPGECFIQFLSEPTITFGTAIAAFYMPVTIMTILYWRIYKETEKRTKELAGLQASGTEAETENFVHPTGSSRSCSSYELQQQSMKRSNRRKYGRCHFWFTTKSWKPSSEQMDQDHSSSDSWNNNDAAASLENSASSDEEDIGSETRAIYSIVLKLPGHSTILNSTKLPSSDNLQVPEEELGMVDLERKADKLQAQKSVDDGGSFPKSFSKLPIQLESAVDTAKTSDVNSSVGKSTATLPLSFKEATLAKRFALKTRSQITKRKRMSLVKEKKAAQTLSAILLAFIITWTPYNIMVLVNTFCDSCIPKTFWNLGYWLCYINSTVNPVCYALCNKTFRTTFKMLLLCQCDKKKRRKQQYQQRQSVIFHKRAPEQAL

SMILES: C[C@@H]1C[C@H]2[C@@H]3CCC4=CC(=O)C=C[C@]4(C)[C@@]3(F)[C@@H](O)C[C@]2(C)[C@@]1(O)C(=O)CO [dexamethasone]
nH (GR (h)): 1.1

nH (M3 (h)): 1.2
IC50 (M5 (h)): 760 pM and 450 pM
Ki (M5 (h)): 380 pM and 220 pM
nH (M5 (h)): 0.8
nH (M4 (h)): 0.8
SMILES: C[N+]1(C)CCC(OC(=O)C(c2ccccc2)c2ccccc2)CC1.[I-] [4-DAMP, reference compound]

SMILES: CNCCCN1c2ccccc2CCc2ccccc21 [desipramine, reference compound]
time of immobility (NMRI mice): reduced the time of immobility

nH (5-HT6 (h)): 1.0
nH (5-HT4e (h)): 0.9
nH (5-HT1B): 0.7
SMILES: NCCc1c[nH]c2ccc(O)cc12 [serotonin]
